For orientation: Ki means a measure of affinity in units of concentration, obtained from inhibition or displacement. Low readings indicate higher affinity, high ones lower affinity.

The text below walks through data of patent US20240058481A1, “RADIOLABELLED COMPOUNDS FOR DIAGNOSING CHOLINERGIC NEURODEGENERATIVE DISEASES” (CENTRE NATIONAL DE LA RECHERCHE SCIENTIFIQUE, priority 2020, published 2024).

Molecules are shown by their SMILES.

Data set [1] deals with T1, VAChT (Rattus norvegicus, UniProt Q62666).
T1 construct: The entire brain was sampled and dissected in different regions: cortex, striatum, hippocampus, thalamus and cerebellum; from tissue; host or cells: brain regions of male Wistar rats (in vivo tracer injection, ex vivo counting)
T1 sequence (Q62666 1-530): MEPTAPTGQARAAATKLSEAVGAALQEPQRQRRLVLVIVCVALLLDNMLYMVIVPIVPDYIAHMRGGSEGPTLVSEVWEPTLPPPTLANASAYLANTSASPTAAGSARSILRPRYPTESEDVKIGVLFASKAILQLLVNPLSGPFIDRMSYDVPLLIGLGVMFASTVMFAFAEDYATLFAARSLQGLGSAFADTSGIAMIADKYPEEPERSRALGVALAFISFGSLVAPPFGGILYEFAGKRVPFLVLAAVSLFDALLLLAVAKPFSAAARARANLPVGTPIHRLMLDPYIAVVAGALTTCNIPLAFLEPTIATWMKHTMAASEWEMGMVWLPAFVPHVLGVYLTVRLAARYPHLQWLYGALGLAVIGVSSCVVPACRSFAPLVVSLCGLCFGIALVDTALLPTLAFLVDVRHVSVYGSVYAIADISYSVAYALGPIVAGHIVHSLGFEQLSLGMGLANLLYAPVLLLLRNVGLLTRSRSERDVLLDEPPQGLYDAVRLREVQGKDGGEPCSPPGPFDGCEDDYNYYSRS
As to the kind of experiment: Biodistribution: cerebral accumulation of the tracers in the rat. Format: in vivo. Conditions: for Striatum/cerebellum accumulation ratio / Cerebral accumulation, cerebellum / Cerebral accumulation, striatum: 2 hours after i.v. injection of the tracer; for Cerebral accumulation, cerebellum / Cerebral accumulation, striatum: ± SEM, n=6/group. How it is done:
Animals: The experiments were conducted in male rates of Wistar strain weighing 250-300 g (Breeding Centre R. Janvier, Le Genest St Isle, France). All procedures were carried out paying heed to European regulations on animal experimentation (2010/63/EU) with authorisation from the regional ethics committee on animal experiments: Comité Régional d'Ethique en Expérimentation Animale.
Biodistribution studies: The rats in the control group were given an i.v. injection of tracer (4-6 MBq in 0.3 mL) under isoflurane gas anaesthesia (n=6/group). In the VES group (n=6/group), injection of the tracer was preceded (5 min) by an i.v. injection of vesamicol (0.5 μmol/kg). The rats were sacrificed by decapitation 2 h after injection of the tracer. The entire brain was sampled and dissected in different regions: cortex, striatum, hippocampus, thalamus and cerebellum. Blood and bone fractions were also sampled. The biological samples were weighed, the radioactivity thereof was measured with a γ counter (2480 Gamma counter Wizard, Perkin Elmer), and the percentage of injected dose/g of tissue (% ID/g) was calculated.

Data set [2] has as its target T1, VAChT. As to the kind of experiment: Radioligand ([3H]vesamicol) binding on rat brain membrane preparation, affinity for VAChT. Conditions: rat brain membranes, mean ± standard deviation of 3 independent experiments, Cheng & Prussoff. The procedure: Measurement of the affinity of the different compounds for VAChT was obtained by radioligand binding method on rat brain membrane preparation, following the method described in Scheunemann et al. (Bioorg Med Chem 2004;12:1459-65). The L-(−)-vesamicol was supplied by Sigma Aldrich (Saint-Quentin-Fallavier, France) and [^3H]vesamicol (specific activity 1705.7 GBq/mmol) by Perkin-Elmer (Courtaboeuf, France). The IC50 values were determined graphically for each compound and Ki (inhibition constant) was calculated following the method of Cheng & Prussoff (Biochemical pharmacology 1973;22:3099-108). The results are expressed as a mean of Ki values±standard deviation from the mean after 3 independent experiments.

With `OC1Cc2cccc(F)c2CC1N1CCC(c2ccccc2)CC1` (racemic) [rac (+/−)-5-FBVM Trans, 5-Fluoro-3-(4-phenylpiperidin-1-yl)-1,2,3,4-tetrahydronaphthalen-2-ol], in data set [1] (in vivo PET tracer in the rat), the In vivo stability result was “good” and the “Passing through the blood-brain barrier” value is listed as “excellent”. Also, the Ki in data set [2] turned out to be 1.3 nM.
`OC1Cc2cccc(OCCF)c2CC1N1CCC(c2ccccc2)CC1` (single isomer, unassigned; (-)) [(−)-FEOBV, 5-fluoroethoxybenzovesamicol, reference compound] gave a Ki in data set [2] of 61 ± 2.8 nM.
Regarding `O[C@H]1Cc2cccc([18F])c2C[C@@H]1N1CCC(c2ccccc2)CC1` [(+)-(S,S)-5-[^18F]FBVM ^18F E2], in data set [1] (rat), the Striatum/cerebellum accumulation ratio amounted to 1.52; the “Cerebral accumulation, cerebellum” value is recorded as 0.215 ± 0.011 % ID/g; the “Cerebral accumulation, striatum” value amounted to 0.327 ± 0.015 % ID/g.
`O[C@@H]1Cc2cccc(F)c2C[C@H]1N1CCC(c2ccccc2)CC1` [(−)-(R,R)-5-FBVM E1, (2R,3R)-5-Fluoro-3-(4-phenylpiperidin-1-yl)-1,2,3,4-tetrahydronaphthalen-2-ol] showed a Ki in data set [2] of 0.9 nM.
Consider `OC1Cc2cccc(OCCF)c2CC1N1CCC(c2ccccc2)CC1` (stereo not shown) [[^18F]FEOBV, 5-fluoroethoxybenzovesamicol, reference compound], for which, in data set [1] (rat), the Striatum/cerebellum accumulation ratio was 3.59; the “Cerebral accumulation, cerebellum” value turned out to be 0.844 ± 0.025 % ID/g; the “Cerebral accumulation, striatum” value was determined as 0.235 ± 0.011 % ID/g.
Regarding `O[C@@H]1Cc2cccc([18F])c2C[C@H]1N1CCC(c2ccccc2)CC1` [(−)-(R,R)-5-FBVM ^18F E1], in data set [1] (rat), the Striatum/cerebellum accumulation ratio worked out at 5.84; the “Cerebral accumulation, cerebellum” value was 0.232 ± 0.017 % ID/g; the “Cerebral accumulation, striatum” value worked out at 1.356 ± 0.069 % ID/g. In data set [1] (rat, (−)vesamicol 0.5 μmole/kg, 5 minutes before injection of the tracer), the “Reduction of accumulation in the striatum after (−)vesamicol pre-administration” value was 46%.
On to `O[C@H]1Cc2cccc(F)c2C[C@@H]1N1CCC(c2ccccc2)CC1` [(+)-(S,S)-5-FBVM. E2, (2S,3S)-5-Fluoro-3-(4-phenylpiperidin-1-yl)-1,2,3,4-tetrahydronaphthalen-2-ol], for which, in data set [2], the Ki was determined as 35 nM.
